# Experimental data: patent publication US6127392A, “Anthranilic acid analogs” (American Home Products Corporation, priority 1998, dated 2000)
# Columns and labels:
# [1] = system: Isolated Rat Bladder Strips; assay: Inhibition of contractions in isolated rat bladder strips; type: cell-based
# Method: Sprague-Dawley rats (150-200 g) are rendered unconscious by CO2 asphyxiation and then euthanized by cervical dislocation. […] The bladder is opened and then cut into strips 1-2 mm in width and 7-10 mm in length. The strips are subsequently suspended in a 10 mL tissue bath under an initial resting tension of 1.5 g. The strips are held in place by two surgical clips one of which is attached to a fixed hook while the other is attached to an isometric force transducer. […] The carbachol is then washed out and the tissue allowed to relax to its resting level of activity. Following a further 30 min period of recovery an additional 15 mM KCl are introduced into the tissue bath. […] Following stabilization of this enhanced level of contractile activity, incremental increases in the concentration of test compound or vehicle are introduced into the tissue bath. Contractile activity is measured for each compound or vehicle concentration during the last minute of a 30 minute challenge.
# [2] = target: T1, calcium-dependent large conductance potassium channels (maxi K^+) (Rattus norvegicus, UniProt Q62976); assay: Potassium channel activation, whole cell patch clamp in isolated rat detrusor cells; type: cell-based
# T1 construct: Rat detrusor cells were isolated in a manner previously described for guinea-pig detrusor; from tissue; host or cells: freshly isolated detrusor smooth muscle cells from urinary bladder dome of male Sprague-Dawley rats (endogenous channel)
# Method: Potassium channel activation by compounds of the present invention was established by examining the effect of the compound of Example 1 on calcium-dependent large conductance potassium channels (maxi K^+) as follows:
# Rat detrusor cells were isolated in a manner previously described for guinea-pig detrusor (Sheldon and Argentieri, 1995). Male Sprage-Dawley rats (200-400 grams) were euthanized by CO2 inhalation and exsanguination. Their urinary bladders were rapidly removed and placed in 37° C. physiological solution with the following composition (mM): Na glutamate (80.0), NaCl (54.7), KCl (5.0), NaHCO3 (25.0), MgCl2.2H2 O (2.5), D-glucose (11.8) and CaCl2 (0.2) gassed with […], 95%/5% for a final pH of 7.4. The dome of the bladder was isolated from the trigon region and the mucosa was removed. This tissue was then cut into 2-3 mm wide strips and placed in fresh buffer for 1 hour. Tissues were then transferred into 10.0 ml of an isolation buffer containing the above composition plus collagenase type VIII (1.0 mg/ml) and pronase (0.25 mg/ml). After 10 minutes the isolation buffer was replaced with fresh isolation buffer for an additional 10 min. […]
# Whole cell recordings were made using broken patch assess. […] After stability was achieved control currents were recorded. […] Currents were recorded for 5 to 10 minutes or until compound effects reached steady state. […]
# [3] = system: swelling induced chloride channel current; assay: Chloride channel blockade, swelling induced chloride current in bladder cells; type: cell-based, guinea pig
# From the text: Normal human bronchial epithelial cells (NHBE) were commercially available from Clonetics Corporation (San Diego, Calif.) and bladder cells were isolated from rat bladder.
# The normal external solution contained (in mM): N-methyl d-Glucamine chloride (NMDGCl). 140, MgCl2 2, CaCl2 2 and 4-(2-hydroxyethyl)-1-piperazine ethanesulfonic acid (HEPES) 10. The normal pipette solution contained (in mM): NMDGCI. 125, HEPES 10, MgCl2 2, ethylenebis(oxonitrilo)tetraacetate (EGTA) 2, and ATPMg 5, the pH adjusted to 7.3 with TRIS. To identify the leak conductance from depolarization, internal Cl ion concentration was reduced to 40 mM using glutamic acid (ECl approximately -31 mV according Nernst equation). The osmolarity for standard external solution was about 280 mOsm. […]
# The whole cell voltage clamp recording techniques were utilized to record membrane ionic currents. […] Membrane currents were recorded using an Axopatch 200A Patch Clamp Amplifier (Axon Instruments, Inc., Foster City, Calif.). […]
# A: current traces from -100 to 60 mV were recorded in the isotonic, low osmolarity (210 mOsm) and after application of 20 μM Example 1 in same cell. […] Panel B is four superimposed ramp test traces recorded in the presence of control, hypotonic, Example 1 and washout solutions. The C panel depicts the time course of the effect of Example 1 on ICl,swelling at 60 mV monitored from the same cell.
# T1 sequence (Q62976 whole entry): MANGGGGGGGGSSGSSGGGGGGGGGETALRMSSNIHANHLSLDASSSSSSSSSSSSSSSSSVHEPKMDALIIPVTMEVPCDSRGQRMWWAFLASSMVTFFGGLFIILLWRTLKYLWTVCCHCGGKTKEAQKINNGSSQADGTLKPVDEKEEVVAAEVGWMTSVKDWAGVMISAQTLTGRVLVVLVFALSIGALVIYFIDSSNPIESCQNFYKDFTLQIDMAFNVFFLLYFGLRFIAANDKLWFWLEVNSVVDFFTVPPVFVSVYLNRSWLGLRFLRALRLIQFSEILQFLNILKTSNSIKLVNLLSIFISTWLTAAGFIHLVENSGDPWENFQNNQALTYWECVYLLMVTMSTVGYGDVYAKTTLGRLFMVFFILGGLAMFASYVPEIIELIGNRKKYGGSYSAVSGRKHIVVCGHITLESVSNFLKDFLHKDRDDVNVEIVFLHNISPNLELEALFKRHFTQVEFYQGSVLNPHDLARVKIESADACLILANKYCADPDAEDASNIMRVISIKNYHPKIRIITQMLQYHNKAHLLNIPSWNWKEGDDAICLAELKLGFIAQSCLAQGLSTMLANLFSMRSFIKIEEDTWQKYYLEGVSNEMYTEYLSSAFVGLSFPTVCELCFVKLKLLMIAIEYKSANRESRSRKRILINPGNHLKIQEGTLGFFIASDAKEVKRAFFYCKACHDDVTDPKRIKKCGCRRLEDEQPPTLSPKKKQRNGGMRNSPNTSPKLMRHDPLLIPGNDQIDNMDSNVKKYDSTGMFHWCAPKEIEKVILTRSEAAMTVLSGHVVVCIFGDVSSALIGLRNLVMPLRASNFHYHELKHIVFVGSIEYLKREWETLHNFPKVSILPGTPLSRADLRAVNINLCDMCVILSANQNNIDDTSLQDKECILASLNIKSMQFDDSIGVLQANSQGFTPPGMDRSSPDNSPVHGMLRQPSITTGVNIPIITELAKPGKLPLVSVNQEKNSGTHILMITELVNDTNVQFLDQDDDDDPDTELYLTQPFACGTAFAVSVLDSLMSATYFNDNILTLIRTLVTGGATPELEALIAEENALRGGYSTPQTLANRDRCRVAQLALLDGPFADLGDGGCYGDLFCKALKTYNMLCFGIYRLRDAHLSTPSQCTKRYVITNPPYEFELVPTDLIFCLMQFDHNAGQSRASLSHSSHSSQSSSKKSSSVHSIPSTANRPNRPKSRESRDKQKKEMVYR
structure (smiles),measurement,setting,value
"C/C(=C\c1ccc(C(F)(F)F)cc1)C(=O)Nc1ccccc1C(=O)O [1, Step 4]",IC50 (A)/IC50 (B),"[1]; aorta/bladder IC50 ratio, selectivity",39.6
"C/C(=C\c1ccc(C(F)(F)F)cc1)C(=O)Nc1ccccc1C(=O)[O-].[Li+] [Example 1, Step 4, (E)-2-[2-Methyl-3-(4-trifluoromethyl-phenyl)-acryloylamino]-benzoic acid lithium salt]",effect on outward current (maxi K^+ current),"[2]; 10 μM in superfusate, isolated rat bladder cells",increase in outward current that was reversible upon washout
same,effect on swelling induced chloride current,"[3]; 20 μM, guinea pig bladder cell, low osmolarity 210 mOsm",significantly reduced swelling induced chloride current
same,inhibition at 20 µM,"[3]; Cavia porcellus, Bladder, Swelling ICl, 60 mV, 210 mOsm",67%
"COc1ccc(/C=C/C(=O)Nc2ccccc2C(=O)O)cc1OC [Tranilast, reference compound]",smooth muscle relaxant potency and bladder selectivity,"[1]; bladder/aorta IC50 ratios, Table 1",not to be a potent or bladder selective smooth muscle relaxant
"COc1ccc(Cl)cc1C(=O)NCCc1ccc(S(=O)(=O)NC(=O)NC2CCCCC2)cc1 [glyburide, reference compound]",effect of glyburide on outward current,[2]; glyburide 5 μM added to the superfusate,no effect
